According to US7183411B2, “Naphthol, quinoline and isoquinoline-derived urea modulators of vanilloid VR1 receptor” (Janssen Pharmaceutica N.V., priority 2002, dated 2007):
Where two headings read alike, the source gives them in different places.

Experiments:
[1] = target: recombinant rat VR1 (rVR1/HEK293) (Rattus norvegicus, UniProt O35433); assay: Broadly stimulated recombinant rat VR1 functional assay (Ca2+ influx, FLIPR); conditions: for IC50: recombinant rat VR1, Ca2+ influx
Description: In an effort to identify potent and efficacious antagonists at human and rat VR1 that were active under conditions simulating aspects of in vivo inflammation functional assays were developed using FLIPR to determine antagonist activity against endogenous activators and stimuli likely to be present in inflammation. Cell lines were constructed that stably expressed recombinant rat VR1 (rVR1/HEK293). Cells were exposed to various stimuli at their EC80, with the exception of the low pH and DTT stimuli.
These studies were corroborated and further studies were performed to confirm that the phorbol ester effect was not due to direct effects on the channel. […] Cells were challenged with 300 nM PMA (˜EC80) after 3 min in the indicated antagonist.
Cells were challenged with 5–10 mM DTT to stimulate VR1 after 3 min incubation in compound.
We performed assays similar to those described for the human recombinant receptor with the exception that a lower pH was required in the Ca^2+ influx assay at the rat recombinant receptor.

human VR1 [2] = target: T1, human VR1 (Homo sapiens, UniProt Q8NER1); assay: Broadly stimulated recombinant human VR1 functional assay (Ca2+ influx, FLIPR); format: cell-based
T1 construct: expressed in transfected cells; host or cells: HEK293

human VR1 [3] = target: T1, human VR1; assay: Human VR1 functional assay (FLIPR intracellular Ca2+, capsaicin challenge); format: cell-based; conditions: read-out: In vitro functional assays hIC50 or EC50
Protocol: The functional activity of the test compounds was determined by measuring changes in intracellular calcium concentration using a Ca^++-sensitive fluorescent dye and FLIPR™ technology.
HEK293 Cells expressing human VR1 were grown on poly-D-lysine coated 96 well black-walled plates (BD 354640) and 2 days later loaded with Fluo-3/AM for 1 hour and subsequently tested for agonist-induced increases in intracellular Ca^2+ levels using FLIPR™ technology. […] EC50 or IC50 values were determined from dose-response studies.

[4] = target: T2, human VR1 vanilloid receptors (Homo sapiens, UniProt Q8NER1); assay: [3H] RTX binding assay, hVR1 membranes from transfected HEK293 cells; conditions: for Ki: human VR1, read-out: Receptor binding Ki
T2 construct: expressed in transfected cells; host or cells: HEK293
Protocol: Compounds of the present invention were tested for their ability to inhibit the binding of [^3H] RTX to hVR1 receptors in a [^3H] RTX binding assay as previously described (Zhang, Sui-Po. Improved ligand binding assays for vanilloid receptors. PCT Int. Appl. (2002), 29 pp. CODEN: PIXXD2 WO 0233411 A1 20020425 AN 2002:315209; Grant, Elfrida R.; Dubin, Adrienne E.; Zhang, Sui-Po; Zivin, Robert A.; Zhong, Zhong Simultaneous intracellular calcium and sodium flux imaging in human vanilloid receptor 1 (VR1)-transfected human embryonic kidney cells: a method to resolve ionic dependence of VR1-mediated cell death. Journal of Pharmacology and Experimental Therapeutics (2002), 300(1), 9–17.)
HEK293 cells were transfected with human VR1 vanilloid receptors and washed with Hank's Balanced Salt Solution, dissociated with cell dissociation buffer (Sigma), and then centrifuged at 1000×g for 5 min. Cell pellets were homogenized in cold 20 mM HEPES buffer, pH 7.4, containing 5.8 mM NaCl, 320 mM sucrose, 2 mM MgCl2, 0.75 CaCl2 and 5 mM KCl and centrifuged at 1000×g for 15 min. The resultant supernate was then centrifuged at 40000×g for 15 min. The pelleted membranes were kept in an −80° C. freezer.
Approximately 120 μg protein/ml from membranes were incubated with indicated concentrations of [^3H] RTX in 0.5 ml of the HEPES buffer (pH 7.4) containing 0.25 mg/mL fatty acid-free bovine serum albumin at 37° C. for 60 min. The reaction mixture was then cooled to 4° C., 0.1 mg α1-acid glycoprotein added to each sample and incubated at 4° C. for 15 min. The samples were centrifuged at 18500×g for 15 min. The tip of the microcentrifuge tube containing the pellet was cut off. Bound radioactivity was quantified by scintillation counting. Non-specific binding was tested in the presence of 200 nM unlabeled RTX.

[5] = tested on: Carrageenan paw-induced thermal hyperalgesia; assay: Carrageenan paw-induced thermal hyperalgesia; format: in vivo; conditions: rat, po, reversal of carrageenan thermal hyperalgesia; read-out: CgHP ED50
Protocol: Each rat is placed on a heated surface (51° C.) in order to measure the time necessary to elicit a response, and an initial (baseline) response time to a thermal stimuli was recorded for each animal. A response is defined as any shaking, licking, or tucking of the treated paw or jumping. Animals not treated with a test compound respond in approximately 20 seconds. The maximal exposure time permitted is 60 seconds to prevent tissue damage. Rats were injected with an irritant (e.g., 1% carrageenan solution in 0.9% saline) subcutaneously into the sub-plantar tissue of the left hind paw to stimulate an acute inflammatory reaction.
Two hours later, the response time of the animal to the thermal stimulus was evaluated and compared to the animal's baseline response time. This shorter response time was recorded as percent hyperalgesia (% H). A cut-off value for % H (usually 75%) was used during analysis to ensure that the animals were hyperalgesic. Animals were then dosed with test drug or vehicle.
At some time(s) later (typically 45 and 90 minutes), the response time of the animal to the thermal stimulus was again evaluated. For each time point, a percent reversal of hyperalgesia (% R) was calculated using the following formula: % R=(Drug Latency−Carrageenan latency)/(Baseline latency−Carrageenan latency). ED50 values were calculated from % R obtained at several drug doses.

[6] = target: T3, VR1 expressed endogenously on small rat dorsal root ganglion (DRG) neurons (Rattus norvegicus, UniProt O35433); assay: Electrophysiologic functional assay using dissociated rat DRG cells; format: cell-based; conditions: read-out: In vitro functional assays Estimated pA2 (rat) (converted)
T3 construct: VR1 expressed endogenously on small rat dorsal root ganglion (DRG) neurons; endogenous in cells; host or cells: dissociated rat DRG neurons
Protocol: Compounds are tested for their activity on VR1 expressed endogenously on small rat dorsal root ganglion (DRG) neurons. DRG neurons from normal rats were dissociated (see methods in Chaplan et al., 2003) and whole cell currents mediated by VR1 were recorded using the whole cell patch clamp technique.

[7] = recombinant human VR1, Ca2+ influx, stimulus 300 nM PMA, read-out: IC50, PKC phosphorylation
[8] = recombinant human VR1, Ca2+ influx, stimulus low pH (pH 6.5), read-out: IC50, Low pH

Chain of recombinant rat VR1 (rVR1/HEK293) (O35433 whole entry): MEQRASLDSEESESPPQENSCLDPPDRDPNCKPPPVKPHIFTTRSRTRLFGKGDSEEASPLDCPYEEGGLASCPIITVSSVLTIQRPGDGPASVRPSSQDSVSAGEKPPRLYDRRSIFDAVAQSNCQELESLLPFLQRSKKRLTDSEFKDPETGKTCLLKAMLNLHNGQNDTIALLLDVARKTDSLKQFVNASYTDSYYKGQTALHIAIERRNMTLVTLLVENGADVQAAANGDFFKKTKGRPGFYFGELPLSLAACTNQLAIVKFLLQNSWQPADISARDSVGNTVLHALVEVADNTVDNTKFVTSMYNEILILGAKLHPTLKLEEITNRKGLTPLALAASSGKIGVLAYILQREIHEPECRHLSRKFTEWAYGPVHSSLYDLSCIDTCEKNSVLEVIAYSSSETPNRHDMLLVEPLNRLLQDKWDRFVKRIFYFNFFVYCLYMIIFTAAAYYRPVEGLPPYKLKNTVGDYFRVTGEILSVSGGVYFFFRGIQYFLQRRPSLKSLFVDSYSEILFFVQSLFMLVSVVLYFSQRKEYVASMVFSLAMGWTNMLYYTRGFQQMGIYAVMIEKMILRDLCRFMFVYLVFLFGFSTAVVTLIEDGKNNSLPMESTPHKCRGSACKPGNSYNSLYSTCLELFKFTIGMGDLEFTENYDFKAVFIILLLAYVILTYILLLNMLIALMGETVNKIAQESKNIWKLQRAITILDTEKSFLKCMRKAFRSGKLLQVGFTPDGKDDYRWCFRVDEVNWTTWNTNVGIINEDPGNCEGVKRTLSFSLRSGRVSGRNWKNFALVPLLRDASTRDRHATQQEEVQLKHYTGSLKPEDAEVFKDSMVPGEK
T1 sequence (Q8NER1 whole entry): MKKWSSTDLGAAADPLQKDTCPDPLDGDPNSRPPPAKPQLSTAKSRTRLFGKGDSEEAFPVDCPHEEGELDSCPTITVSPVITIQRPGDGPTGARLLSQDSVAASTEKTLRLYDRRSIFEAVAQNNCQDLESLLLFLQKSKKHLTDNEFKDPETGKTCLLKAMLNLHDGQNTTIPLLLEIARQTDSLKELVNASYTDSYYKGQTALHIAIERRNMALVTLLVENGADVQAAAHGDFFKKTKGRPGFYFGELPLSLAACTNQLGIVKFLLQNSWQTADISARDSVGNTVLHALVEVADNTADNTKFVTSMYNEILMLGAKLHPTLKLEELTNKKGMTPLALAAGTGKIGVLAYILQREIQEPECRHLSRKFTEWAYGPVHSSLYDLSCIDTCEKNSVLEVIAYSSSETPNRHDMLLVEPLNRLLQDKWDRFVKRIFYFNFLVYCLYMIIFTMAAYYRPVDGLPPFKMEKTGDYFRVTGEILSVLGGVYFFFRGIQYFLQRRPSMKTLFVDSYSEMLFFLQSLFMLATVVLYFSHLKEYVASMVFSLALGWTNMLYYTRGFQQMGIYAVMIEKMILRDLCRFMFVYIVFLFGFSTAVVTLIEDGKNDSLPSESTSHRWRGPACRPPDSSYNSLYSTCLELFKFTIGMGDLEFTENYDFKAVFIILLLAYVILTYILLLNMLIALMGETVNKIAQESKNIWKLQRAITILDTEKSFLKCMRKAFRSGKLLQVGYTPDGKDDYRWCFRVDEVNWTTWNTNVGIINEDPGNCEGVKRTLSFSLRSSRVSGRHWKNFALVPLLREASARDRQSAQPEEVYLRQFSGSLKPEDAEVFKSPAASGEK
T2 sequence (Q8NER1 whole entry): as above
T3 sequence (O35433 whole entry): as the sequence (O35433 whole entry) above

IC50 or EC50 (human VR1 [3]) [µM]	Ki [4] [µM]	Structure (SMILES)	also measured
0.019	0.0412	O=C(NCCc1cccc(C(F)(F)F)c1)Nc1cccc2cnccc12 [Compound 2]	–
0.0056	0.031	O=C(NCc1ccc(Cl)cc1)Nc1cccc2cnccc12 [Compound 6]	–
0.018	0.0129	Cc1cc2c(NC(=O)NCc3ccc(Cl)c(Cl)c3)cccc2cn1 [Compound 8]	–
0.0094	0.039	Cc1cc2c(NC(=O)NCc3cccc(C(F)(F)F)c3)cccc2cn1 [Compound 9]	–
0.02	0.00012	CC(C)(C)c1ccc(CNC(=O)Nc2cccc3ccc(O)cc23)cc1 [Compound 13]	–
0.004	0.0001	O=C(NCc1ccc(C(F)(F)F)cc1)Nc1cccc2ccc(O)cc12 [Compound 17]	ED50 [5]: 20 mg/kg
0.045	0.0935	O=C(NCc1ccccc1)Nc1cccc2ccc(O)cc12 [Compound 18]	–
0.0033	0.00128	O=C(NCc1ccc(OC(F)(F)F)cc1)Nc1cccc2cnccc12 [Compound 22]	–
–	0.0535	O=C(NCCc1ccccc1)Nc1cccc2ccc(O)cc12 [Compound 23]	–
0.015	0.00203	O=C(NCc1ccc(Cl)c(Cl)c1)Nc1cccc2ccc(O)cc12 [Compound 31]	–
–	2.54	O=C(NCc1nc2ccccc2[nH]1)Nc1cccc2ccc(O)cc12 [Compound 32]	–
0.0058	0.0013	CC(C)(C)c1ccc(CCNC(=O)Nc2cccc3cnccc23)cc1 [Compound 35]	–
–	0.0224	O=C(NCCc1ccc(C(F)(F)F)cc1)Nc1cccc2cnccc12 [Compound 36]	–
0.045	0.193	COc1ccc(CNC(=O)Nc2cccc3cnccc23)cc1 [Compound 37]	–

More lines, now with the values behind:

Structure (SMILES)	IC50 or EC50 (human VR1 [3]) [µM]	Ki [4] [µM]	also measured
Oc1cc2c(cc1O)CN(C(=S)NCCc1ccc(Cl)cc1)CCC2 [Capsazepine, capsazepine]	–	–	IC50 ([1]; IC50, Anandamide, stimulus anandamide 10 μM): 1.3 µM; IC50 ([1]; IC50, Low pH, stimulus low pH (pH 5.9)): 5 µM; IC50 ([1]; IC50, PKC phosphorylation at low pH, PMA at low pH): 10 µM; IC50 ([1]; IC50, PKC phosphorylation, stimulus 300 nM PMA): 10 µM; IC50 (human VR1 [2]; human recombinant receptor, FIG. 1, read-out: potency to inhibit Ca2+ activity induced by the panel of stimuli): 0.1 to 0.3 µM; IC50 (human VR1 [2]; recombinant human VR1, Ca2+ influx, PMA at low pH, read-out: IC50, PKC phosphorylation at low pH): 0.37 µM; IC50 (human VR1 [2]; [7]): 0.16 µM; IC50 (human VR1 [2]; [8]): 0.11 µM
O=C(NCCc1ccc(Cl)c(Cl)c1)Nc1cccc2cnccc12 [Compound 1]	0.008	0.0126	–
O=C(NCCc1ccc(Cl)cc1)Nc1cccc2cnccc12 [Compound 3]	0.036	0.0887	–
O=C(NCc1ccc(C(F)(F)F)cc1)Nc1cccc2cnccc12 [Compound 4]	–	0.00687	ED50 [5]: 0.804 mg/kg
O=C(NCc1ccc(Cl)c(Cl)c1)Nc1cccc2cnccc12 [Compound 5]	0.004	0.00887	–
O=C(NCc1cccc(C(F)(F)F)c1)Nc1cccc2cnccc12 [Compound 7]	0.011	0.0227	–
COc1ccc(C(CNC(=O)Nc2cccc3cnccc23)CC2CCCCC2)cc1 (stereo not shown) [Compound 12]	–	0.00562	–
O=C(NCc1ccc(Cl)cc1)Nc1cccc2ccc(O)cc12 [Compound 14]	0.0049	0.00327	–
O=C(NCc1cccnc1)Nc1cccc2ccc(O)cc12 [Compound 15]	3.7	–	inhibition at 1 µM ([4]; human VR1, 1 μM compound, read-out: Receptor binding % Inhibition @ 1 μM): 11%
O=C(NCc1ccc(OC(F)(F)F)cc1)Nc1cccc2ccc(O)cc12 [Compound 16]	0.027	0.00011	–
O=C(NCc1cccc(C(F)(F)F)c1)Nc1cccc2ccc(O)cc12 [Compound 19]	0.026	0.00038	–
COc1ccc(CCNC(=O)Nc2cccc3cnccc23)cc1 [Compound 21]	0.68	1.29	–
O=C(Nc1cccc2ccc(O)cc12)N(Cc1ccccc1)Cc1ccccc1 [Compound 25]	–	3.28	–
CN(Cc1ccccc1)C(=O)Nc1cccc2ccc(O)cc12 [Compound 26]	10	18.6	–
O=C(NCCc1ccc(Cl)c(Cl)c1)Nc1cccc2ccc(O)cc12 [Compound 27]	0.097	0.00122	–
O=C(NCc1ccc(C(F)(F)F)nc1)Nc1cccc2ccc(O)cc12 [Compound 29]	0.044	0.0361	–
CN(Cc1ccc(Cl)c(Cl)c1)C(=O)Nc1cccc2ccc(O)cc12 [Compound 30]	–	0.581	–
O=C(NCCc1ccc(OC(F)(F)F)cc1)Nc1cccc2cnccc12 [Compound 38]	0.011	0.00603	–
O=C(NCc1ccc(F)c(F)c1)Nc1cccc2ccc(O)cc12 [Compound 42]	–	0.00722	–
O=C(NCc1ccc(Cl)cc1Cl)Nc1cccc2ccc(O)cc12 [Compound 47]	–	0.00279	–
O=C(NCc1ccc(C(F)(F)F)cc1)Nc1cccc2c(Cl)nccc12 [Compound 55, 1-(1-Chloro-isoquinolin-5-yl)-3-(4-trifluoromethyl-benzyl)-urea]	–	0.00735	Kb [6]: < 0.03 µM
O=C(NCc1cc(C(F)(F)F)cc(C(F)(F)F)c1)Nc1cccc2ccc(O)cc12 [Compound 58]	–	0.00516	–
O=C(NCc1ccc(C(F)(F)F)cc1)Nc1cccc2cncc(Cl)c12 [Compound 59]	–	7.34	–
CN(CC1CCCCC1)c1ccc(CNC(=O)Nc2cnc3ccccc3c2)cc1 [Compound 65]	10	0.129	–
OO [Compound H2O2, H2O2]	–	–	EC80 for H2O2-induced Ca2+ flux (human VR1 [2]; VR1/HEK cells, species not stated): 0.015 % H2O2
CCCCCCCCCCCCCC(=O)O[C@@H]1[C@@H](C)[C@@]2(O)[C@@H](C=C(CO)C[C@]3(O)C(=O)C(C)=C[C@@H]23)[C@@H]2C(C)(C)[C@]12OC(C)=O [PMA, phorbol-12-myristate-13-acetate]	–	–	EC50 ([1]; read-out: EC50 (increase in intracellular Ca2+), agonist at rat recombinant VR1): 0.09 µM; EC50 (human VR1 [2]; agonist at human recombinant VR1, read-out: EC50 (increase in intracellular Ca2+)): 0.09 µM
Cl.Cl.Cl.Cl.Cl.Cl.N.N.N.N.N.N.N.N.N.N.N.N.N.N.[O-2].[O-2].[Ru+3].[Ru+3].[Ru+4] [Ruthenium Red, ruthenium red]	–	–	IC50 ([1]; read-out: IC50, Anandamide, stimulus anandamide 10 μM): 1.86 µM; IC50 ([1]; read-out: IC50, PKC phosphorylation, stimulus 300 nM PMA): 0.3 µM; IC50 (human VR1 [2]; [7]): 0.5 µM; IC50 (human VR1 [2]; [8]): 0.5 µM
CCCCC/C=C\C/C=C\C/C=C\C/C=C\CCCC(=O)NCCO [anandamide, Anandamide]	–	–	EC50 [1]: 5 µM; EC50 (human VR1 [2]): 3 µM
